# Measured values as given in the supplement of paper PMC10307832.
# Experiments:
# Experiment in all cases: relative viability (nuclei count vs DMSO), 5 days (fraction); higher = more cells survive
# COR-L 105 = tested on: COR-L 105
# Method in brief: (§1)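 Lung cancer cell lines were pin-tool dosed in 1536-well plates on the day after seeding, with either a lone drug or a fixed anchor-drug dose plus five library-drug doses (not always all listed) in √10 steps. Nuclei were counted on 4× images after 5 days. Relative viability is the ratio of treated-well to vehicle-well nuclei counts, with each value a median of duplicate plates.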
# COR-L23 = tested on: COR-L23
# Method in brief: as §1
# EKVX = tested on: EKVX
# Method in brief: as §1
# HARA = tested on: HARA
# Method in brief: as §1
# HCC-15 = tested on: HCC-15
# Method in brief: as §1
# HOP-62 = tested on: HOP-62
# Method in brief: as §1
# NCI-H1355 = tested on: NCI-H1355
# Method in brief: as §1
# NCI-H1395 = tested on: NCI-H1395
# Method in brief: as §1
# NCI-H1734 = tested on: NCI-H1734
# Method in brief: as §1
# NCI-H1755 = tested on: NCI-H1755
# Method in brief: as §1
# NCI-H1793 = tested on: NCI-H1793
# Method in brief: as §1
# NCI-H1993 = tested on: NCI-H1993
# Method in brief: as §1
# NCI-H2009 = tested on: NCI-H2009
# Method in brief: as §1
# NCI-H2170 = tested on: NCI-H2170
# Method in brief: as §1
# NCI-H2228 = tested on: NCI-H2228
# Method in brief: as §1
# NCI-H2342 = tested on: NCI-H2342
# Method in brief: as §1
# NCI-H2347 = tested on: NCI-H2347
# Method in brief: as §1
# NCI-H358 = tested on: NCI-H358
# Method in brief: as §1
# NCI-H647 = tested on: NCI-H647
# Method in brief: as §1
# NCI-H838 = tested on: NCI-H838
# Method in brief: as §1
# PC-14 = tested on: PC-14
# Method in brief: as §1
# SK-MES-1 = tested on: SK-MES-1
# Method in brief: as §1
# UMC-11 = tested on: UMC-11
# Method in brief: as §1
smiles,measurement,setting,value
NC(=O)Nc1cc(-c2cccc(F)c2)sc1C(=O)N[C@H]1CCCNC1 [AZD7762] + CC(=O)Nc1cccc(-n2c(=O)n(C3CC3)c(=O)c3c(Nc4ccc(I)cc4F)n(C)c(=O)c(C)c32)c1 [Trametinib] (partner 0.02 µM),relative viability,COR-L 105; first compound 0.01 µM,0.435
same,relative viability,COR-L 105; first compound 0.03162 µM,0.462
same,relative viability,COR-L 105; first compound 0.1 µM,0.416
same,relative viability,COR-L 105; first compound 0.3162 µM,0.444
same,relative viability,COR-L 105; first compound 1 µM,0.43
same,relative viability,COR-L23; first compound 0.01 µM,0.702
same,relative viability,COR-L23; first compound 0.03162 µM,0.623
same,relative viability,COR-L23; first compound 0.1 µM,0.518
same,relative viability,COR-L23; first compound 0.3162 µM,0.319
same,relative viability,COR-L23; first compound 1 µM,0.119
same,relative viability,EKVX; first compound 0.01 µM,0.345
same,relative viability,EKVX; first compound 0.03162 µM,0.502
same,relative viability,EKVX; first compound 0.1 µM,0.371
same,relative viability,EKVX; first compound 0.3162 µM,0.314
same,relative viability,EKVX; first compound 1 µM,0.279
same,relative viability,HARA; first compound 0.01 µM,0.686
same,relative viability,HARA; first compound 0.03162 µM,0.629
same,relative viability,HARA; first compound 0.1 µM,0.868
same,relative viability,HARA; first compound 0.3162 µM,0.664
same,relative viability,HARA; first compound 1 µM,0.295
same,relative viability,HCC-15; first compound 0.01 µM,0.407
same,relative viability,HCC-15; first compound 0.03162 µM,0.393
same,relative viability,HCC-15; first compound 0.1 µM,0.413
same,relative viability,HCC-15; first compound 0.3162 µM,0.351
same,relative viability,HCC-15; first compound 1 µM,0.443
same,relative viability,HOP-62; first compound 0.01 µM,0.363
same,relative viability,HOP-62; first compound 0.03162 µM,0.367
same,relative viability,HOP-62; first compound 0.1 µM,0.407
same,relative viability,HOP-62; first compound 0.3162 µM,0.37
same,relative viability,HOP-62; first compound 1 µM,0.343
same,relative viability,NCI-H1355; first compound 0.01 µM,0.406
same,relative viability,NCI-H1355; first compound 0.03162 µM,0.466
same,relative viability,NCI-H1355; first compound 0.1 µM,0.368
same,relative viability,NCI-H1355; first compound 0.3162 µM,0.441
same,relative viability,NCI-H1355; first compound 1 µM,0.522
same,relative viability,NCI-H1395; first compound 0.01 µM,1.18
same,relative viability,NCI-H1395; first compound 0.03162 µM,1.12
same,relative viability,NCI-H1395; first compound 0.1 µM,0.92
same,relative viability,NCI-H1395; first compound 0.3162 µM,0.637
same,relative viability,NCI-H1395; first compound 1 µM,0.368
same,relative viability,NCI-H1734; first compound 0.01 µM,0.761
same,relative viability,NCI-H1734; first compound 0.03162 µM,0.683
same,relative viability,NCI-H1734; first compound 0.1 µM,0.812
same,relative viability,NCI-H1734; first compound 0.3162 µM,0.641
same,relative viability,NCI-H1734; first compound 1 µM,0.562
same,relative viability,NCI-H1755; first compound 0.01 µM,0.788
same,relative viability,NCI-H1755; first compound 0.03162 µM,0.823
same,relative viability,NCI-H1755; first compound 0.1 µM,0.76
same,relative viability,NCI-H1755; first compound 0.3162 µM,0.694
same,relative viability,NCI-H1755; first compound 1 µM,0.635
same,relative viability,NCI-H1793; first compound 0.01 µM,0.469
same,relative viability,NCI-H1793; first compound 0.03162 µM,0.485
same,relative viability,NCI-H1793; first compound 0.1 µM,0.456
same,relative viability,NCI-H1793; first compound 0.3162 µM,0.446
same,relative viability,NCI-H1793; first compound 1 µM,0.381
same,relative viability,NCI-H1993; first compound 0.01 µM,0.458
same,relative viability,NCI-H1993; first compound 0.03162 µM,0.482
same,relative viability,NCI-H1993; first compound 0.1 µM,0.605
same,relative viability,NCI-H1993; first compound 0.3162 µM,0.674
same,relative viability,NCI-H1993; first compound 1 µM,0.536
same,relative viability,NCI-H2009; first compound 0.01 µM,0.279
same,relative viability,NCI-H2009; first compound 0.03162 µM,0.35
same,relative viability,NCI-H2009; first compound 0.1 µM,0.207
same,relative viability,NCI-H2009; first compound 0.3162 µM,0.295
same,relative viability,NCI-H2009; first compound 1 µM,0.236
same,relative viability,NCI-H2170; first compound 0.01 µM,0.935
same,relative viability,NCI-H2170; first compound 0.03162 µM,0.939
same,relative viability,NCI-H2170; first compound 0.1 µM,0.945
same,relative viability,NCI-H2170; first compound 0.3162 µM,0.951
same,relative viability,NCI-H2170; first compound 1 µM,0.914
same,relative viability,NCI-H2228; first compound 0.01 µM,0.483
same,relative viability,NCI-H2228; first compound 0.03162 µM,0.668
same,relative viability,NCI-H2228; first compound 0.1 µM,0.461
same,relative viability,NCI-H2228; first compound 0.3162 µM,0.37
same,relative viability,NCI-H2228; first compound 1 µM,0.187
same,relative viability,NCI-H2342; first compound 0.01 µM,0.861
same,relative viability,NCI-H2342; first compound 0.03162 µM,0.756
same,relative viability,NCI-H2342; first compound 0.1 µM,0.828
same,relative viability,NCI-H2342; first compound 0.3162 µM,0.863
same,relative viability,NCI-H2342; first compound 1 µM,0.97
same,relative viability,NCI-H2347; first compound 0.01 µM,0.313
same,relative viability,NCI-H2347; first compound 0.03162 µM,0.279
same,relative viability,NCI-H2347; first compound 0.1 µM,0.281
same,relative viability,NCI-H2347; first compound 0.3162 µM,0.287
same,relative viability,NCI-H2347; first compound 1 µM,0.305
same,relative viability,NCI-H358; first compound 0.01 µM,0.136
same,relative viability,NCI-H358; first compound 0.03162 µM,0.135
same,relative viability,NCI-H358; first compound 0.1 µM,0.148
same,relative viability,NCI-H358; first compound 0.3162 µM,0.145
same,relative viability,NCI-H358; first compound 1 µM,0.1
same,relative viability,NCI-H647; first compound 0.01 µM,0.533
same,relative viability,NCI-H647; first compound 0.03162 µM,0.579
same,relative viability,NCI-H647; first compound 0.1 µM,0.456
same,relative viability,NCI-H647; first compound 0.3162 µM,0.384
same,relative viability,NCI-H647; first compound 1 µM,0.16
same,relative viability,NCI-H838; first compound 0.01 µM,0.632
same,relative viability,NCI-H838; first compound 0.03162 µM,0.513
same,relative viability,NCI-H838; first compound 0.1 µM,0.483
same,relative viability,NCI-H838; first compound 0.3162 µM,0.537
same,relative viability,NCI-H838; first compound 1 µM,0.305
same,relative viability,PC-14; first compound 0.01 µM,0.802
same,relative viability,PC-14; first compound 0.03162 µM,0.832
same,relative viability,PC-14; first compound 0.1 µM,0.659
same,relative viability,PC-14; first compound 0.3162 µM,0.236
same,relative viability,PC-14; first compound 1 µM,0.0675
same,relative viability,SK-MES-1; first compound 0.01 µM,0.543
same,relative viability,SK-MES-1; first compound 0.03162 µM,0.535
same,relative viability,SK-MES-1; first compound 0.1 µM,0.559
same,relative viability,SK-MES-1; first compound 0.3162 µM,0.347
same,relative viability,SK-MES-1; first compound 1 µM,0.227
same,relative viability,UMC-11; first compound 0.01 µM,0.678
same,relative viability,UMC-11; first compound 0.03162 µM,0.696
same,relative viability,UMC-11; first compound 0.1 µM,0.656
same,relative viability,UMC-11; first compound 0.3162 µM,0.665
same,relative viability,UMC-11; first compound 1 µM,0.33
